According to patent US7767659B2, “Synthesis of naturally occurring ecteinascidins and related compounds” (Pharma Mar, S.A., priority 2002, dated 2010):

What was measured:
LNCaP = experiment: Inhibition of cells growth by colorimetric assay (SRB); conditions: Homo sapiens, LNCaP, 48 h; for GI50: read-out: LNCAP GI50; for CC50: read-out: LNCAP LC50; for IC (TGI): read-out: LNCAP TGI
Method in brief: (§1)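 Colorimetric SRB read (490 nm) on triplicate wells after 48 h at 37 °C, 5% CO2. Dose range 10 to 10^−8 μg/ml; 5×10^3 cells/well pre-attached 18 h.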

K-562 = experiment: as above; conditions: Homo sapiens, K562, 48 h; for GI50: read-out: K562 GI50; for CC50: read-out: K562 LC50; for IC (TGI): read-out: K562 TGI
Method in brief: as §1

SK-OV-3 = experiment: as above; conditions: for GI50 / CC50: Homo sapiens, SK-OV-3, 48 h; for GI50: read-out: SK-OV3 GI50; for CC50: read-out: SK-OV3 LC50; for SK-OV3 TGI: SRB, 48 hours exposure
Method in brief: as §1

PANC-1 = experiment: as above; conditions: Homo sapiens, PANC-1, 48 h; for GI50: read-out: PANC-1 GI50; for CC50: read-out: PANC-1 LC50; for IC (TGI): read-out: PANC-1 TGI
Method in brief: as §1

LoVo-Dox = experiment: as above; conditions: Homo sapiens, 48 h; for GI50: read-out: LOVO-DOX GI50; for CC50: read-out: LOVO-DOX LC50; for IC (TGI): read-out: LOVO-DOX TGI
Method in brief: as §1

DU-145 = experiment: as above; conditions: Homo sapiens, DU-145, 48 h; for GI50: read-out: DU145 GI50; for CC50: read-out: DU145 LC50; for IC (TGI): read-out: DU145 TGI
Method in brief: as §1

IGROV-ET = experiment: as above; conditions: Homo sapiens, 48 h; for GI50: read-out: IGROV-ET GI50; for CC50: read-out: IGROV-ET LC50; for IC (TGI): read-out: IGROV-ET TGI
Method in brief: as §1

SK-MEL-28 = experiment: as above; conditions: Homo sapiens, SK-MEL-28, 48 h; for GI50: read-out: MEL-28 GI50; for CC50: read-out: MEL-28 LC50; for IC (TGI): read-out: MEL-28 TGI
Method in brief: as §1

IGROV-1 = experiment: as above; conditions: Homo sapiens, IGROV-1, 48 h; for GI50: read-out: IGROV GI50; for CC50: read-out: IGROV LC50; for IC (TGI): read-out: IGROV TGI
Method in brief: as §1

HT-29 = experiment: cells; conditions: Homo sapiens, HT-29, 48 h; for GI50: read-out: HT29 GI50; for CC50: read-out: HT29 LC50; for IC (TGI): read-out: HT29 TGI
Method in brief: as §1

A-549 = experiment: cells; conditions: Homo sapiens, A549, 48 h; for GI50: read-out: A549 GI50; for CC50: read-out: A549 LC50; for IC (TGI): read-out: A549 TGI
Method in brief: as §1

LoVo = experiment: cells; conditions: Homo sapiens, LoVo, 48 h; for GI50: read-out: LOVO GI50; for CC50: read-out: LOVO LC50; for IC (TGI): read-out: LOVO TGI
Method in brief: as §1

SK-BR-3 = experiment: Inhibition of cells growth by colorimetric assay (SRB); conditions: Homo sapiens, SK-BR-3, 48 h; for GI50: read-out: SK-BR3 GI50; for CC50: read-out: SK-BR3 LC50; for IC (TGI): read-out: SK-BR3 TGI
Method in brief: as §1

HMEC1 = experiment: as above
Method in brief: as §1

HeLa-APL = experiment: as above; conditions: Homo sapiens, 48 h
Method in brief: as §1

HeLa = experiment: as above; conditions: Homo sapiens, HeLa, 48 h
Method in brief: as §1

COc1cc2c(cc1O)CCN[C@]21CS[C@@H]2c3c(OC(C)=O)c(C)c4c(c3[C@H](CNC1=O)N1C2[C@H]2c3c(cc(C)c(OC)c3O)CC([C@@H]1O)N2C)OCO4 (stereo partly drawn) [compound 77]
GI50 (LNCaP): 43.5 nM | CC50 (LNCaP): 118 nM | IC (TGI) (LNCaP): 71 nM | GI50 (K-562): 16.6 nM | CC50 (K-562): 13100 nM | IC (TGI) (K-562): 101 nM | GI50 (SK-OV-3): 439 nM | CC50 (SK-OV-3): 13100 nM | SK-OV3 TGI (SK-OV-3): 4.86E−06 Molar | GI50 (PANC-1): 418 nM | CC50 (PANC-1): 13100 nM | IC (TGI) (PANC-1): 2720 nM | GI50 (LoVo-Dox): 929 nM | CC50 (LoVo-Dox): 13100 nM | IC (TGI) (LoVo-Dox): 5660 nM | GI50 (DU-145): 301 nM | CC50 (DU-145): 13100 nM | IC (TGI) (DU-145): 1160 nM | GI50 (IGROV-ET): 652 nM | CC50 (IGROV-ET): 13100 nM | IC (TGI) (IGROV-ET): 1700 nM | GI50 (SK-MEL-28): 63.1 nM | CC50 (SK-MEL-28): 756 nM | IC (TGI) (SK-MEL-28): 175 nM | GI50 (IGROV-1): 58 nM | CC50 (IGROV-1): 6320 nM | IC (TGI) (IGROV-1): 272 nM | GI50 (HT-29): 189 nM | CC50 (HT-29): 13100 nM | IC (TGI) (HT-29): 908 nM | GI50 (A-549): 301 nM | CC50 (A-549): 3650 nM | IC (TGI) (A-549): 728 nM | GI50 (LoVo): 241 nM | CC50 (LoVo): 13100 nM | IC (TGI) (LoVo): 917 nM

COc1cc2c(cc1O)CCN[C@]21CS[C@@H]2c3c(OC(C)=O)c(C)c4c(c3[C@H](CNC1=O)N1C2[C@H]2c3c(cc(C)c(OC)c3O)C[C@@H]([C@@H]1C#N)N2C)OCO4 (stereo partly drawn) [compound 76]
GI50 (LNCaP): 46.6 nM | CC50 (LNCaP): 257 nM | IC (TGI) (LNCaP): 80.7 nM | GI50 (K-562): 26.9 nM | CC50 (K-562): 13000 nM | IC (TGI) (K-562): 130 nM | GI50 (SK-OV-3): 547 nM | CC50 (SK-OV-3): 13000 nM | SK-OV3 TGI (SK-OV-3): 1.90E−06 Molar | GI50 (PANC-1): 695 nM | CC50 (PANC-1): 13000 nM | IC (TGI) (PANC-1): 4970 nM | GI50 (LoVo-Dox): 2660 nM | CC50 (LoVo-Dox): 13000 nM | IC (TGI) (LoVo-Dox): 8130 nM | GI50 (DU-145): 492 nM | CC50 (DU-145): 13000 nM | IC (TGI) (DU-145): 1340 nM | GI50 (IGROV-ET): 513 nM | CC50 (IGROV-ET): 1300 nM | IC (TGI) (IGROV-ET): 924 nM | GI50 (SK-MEL-28): 238 nM | CC50 (SK-MEL-28): 1270 nM | IC (TGI) (SK-MEL-28): 549 nM | GI50 (IGROV-1): 197 nM | CC50 (IGROV-1): 5250 nM | IC (TGI) (IGROV-1): 648 nM | GI50 (HT-29): 627 nM | CC50 (HT-29): 13000 nM | IC (TGI) (HT-29): 1300 nM | GI50 (A-549): 413 nM | CC50 (A-549): 4650 nM | IC (TGI) (A-549): 840 nM | GI50 (LoVo): 274 nM | CC50 (LoVo): 1300 nM | IC (TGI) (LoVo): 683 nM

COc1cc2c(cc1O)CCN[C@]21CS[C@@H]2c3c(OC(C)=O)c(C)c4c(c3[C@H](COC1=O)N1[C@@H]2[C@H]2c3c(cc(C)c(OC)c3O)C[C@@H]([C@@H]1O)N2C)OCO4 [Et-743, ecteinascidin 743, reference compound]
GI50 (LNCaP): 0.23 nM | CC50 (LNCaP): 1.22 nM | IC (TGI) (LNCaP): 0.529 nM | GI50 (K-562): 0.347 nM | CC50 (K-562): 1.06 nM | IC (TGI) (K-562): 0.605 nM | GI50 (SK-BR-3): 0.479 nM | CC50 (SK-BR-3): 8.57 nM | IC (TGI) (SK-BR-3): 1.72 nM | GI50 (SK-OV-3): 1.31 nM | SK-OV3 TGI (SK-OV-3): 1.30E−08 Molar | GI50 (PANC-1): 1.59 nM | CC50 (PANC-1): 39.9 nM | IC (TGI) (PANC-1): 6.34 nM | H-MEC-1 TGI (HMEC1; H-MEC-1, SRB, 48 hours exposure): 6.88E−08 Molar | GI50 (HMEC1; Homo sapiens, HMEC-1, 48 h, read-out: H-MEC-1 GI50): 9.03 nM | GI50 (LoVo-Dox): 29.5 nM | IC (TGI) (LoVo-Dox): 110 nM | GI50 (DU-145): 0.618 nM | CC50 (DU-145): 4330 nM | IC (TGI) (DU-145): 1.29 nM | GI50 (IGROV-ET): 4.29 nM | CC50 (IGROV-ET): 18.6 nM | IC (TGI) (IGROV-ET): 7.86 nM | GI50 (SK-MEL-28): 0.742 nM | CC50 (SK-MEL-28): 11.2 nM | IC (TGI) (SK-MEL-28): 3.06 nM | GI50 (IGROV-1): 0.579 nM | CC50 (IGROV-1): 10.3 nM | IC (TGI) (IGROV-1): 2.6 nM | GI50 (HT-29): 3.41 nM | CC50 (HT-29): 13100 nM | IC (TGI) (HT-29): 11.1 nM | GI50 (A-549): 2.52 nM | CC50 (A-549): 12.1 nM | IC (TGI) (A-549): 5.51 nM | GI50 (LoVo): 1.56 nM | CC50 (LoVo): 11.4 nM | IC (TGI) (LoVo): 4.23 nM

COc1cc2c(cc1O)CCN[C@]21CS[C@@H]2c3c(O)c(C)c4c(c3[C@H](COC1=O)N1C2[C@@H]2N[C@@H](Cc3cc(C)c(OC)c(O)c32)[C@@H]1O)OCO4 (stereo partly drawn) [compound 68]
GI50 (LNCaP): 1.59 nM | CC50 (LNCaP): 8.64 nM | IC (TGI) (LNCaP): 3.7 nM | GI50 (K-562): 2.65 nM | CC50 (K-562): 234 nM | IC (TGI) (K-562): 6.6 nM | GI50 (SK-BR-3): 7.2 nM | CC50 (SK-BR-3): 14200 nM | IC (TGI) (SK-BR-3): 153 nM | GI50 (HeLa-APL; read-out: HELA-APL GI50): 3.81 nM | CC50 (HeLa-APL; read-out: HELA-APL LC50): 10.4 nM | IC (TGI) (HeLa-APL; read-out: HELA-APL TGI): 6.32 nM | GI50 (PANC-1): 3.9 nM | CC50 (PANC-1): 2070 nM | IC (TGI) (PANC-1): 12.8 nM | GI50 (LoVo-Dox): 472 nM | CC50 (LoVo-Dox): 14200 nM | IC (TGI) (LoVo-Dox): 14200 nM | GI50 (DU-145): 4.68 nM | CC50 (DU-145): 14200 nM | IC (TGI) (DU-145): 1.5 nM | GI50 (HeLa; read-out: HELA GI50): 4 nM | CC50 (HeLa; read-out: HELA LC50): 12.4 nM | IC (TGI) (HeLa; read-out: HELA TGI): 7.06 nM | GI50 (IGROV-ET): 290 nM | CC50 (IGROV-ET): 8630 nM | IC (TGI) (IGROV-ET): 1660 nM | GI50 (SK-MEL-28): 5.45 nM | CC50 (SK-MEL-28): 52.1 nM | IC (TGI) (SK-MEL-28): 15.7 nM | GI50 (IGROV-1): 3.94 nM | CC50 (IGROV-1): 35.1 nM | IC (TGI) (IGROV-1): 8.01 nM | GI50 (HT-29): 6.66 nM | CC50 (HT-29): 14200 nM | IC (TGI) (HT-29): 15 nM | GI50 (A-549): 28.1 nM | CC50 (A-549): 6290 nM | IC (TGI) (A-549): 113 nM | GI50 (LoVo): 12 nM | CC50 (LoVo): 1930 nM | IC (TGI) (LoVo): 48 nM
